Measured values: ChEMBL document CHEMBL1201862, “PubChem BioAssay data set” (2004)
The source made the active and inactive calls.

Tests used:
[1] = molecular target: Fructose-bisphosphate aldolase (Mycobacterium tuberculosis, UniProt P9WQA3); assay: Fluorescence-based biochemical high throughput dose response assay for inhibitors of the fructose-bisphosphate aldolase (FBA) of M. tuberculosis.; assay type: functional
[2] = HGIII-sPLA2 enzyme inhibition potency – biochemical, QFRET, IC50, dose response (AID 743457);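 also: green fluorescence rise as the enzyme cleaves BODIPY PC-A2 in liposomes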
[3] = blockers of HIV-1 envelope-mediated cell-cell fusion – cherry-pick, dose response (AID 652057); assay type: functional, cell-based
[4] = viability loss in CEM21 cells – cell-based, CellTiter-Glo luminescence, cherry-picked, cytotoxicity control for viral fusion inhibitor project, dose response (AID 652042); assay type: functional;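 also: potency for signal decrease meaning cytotoxicity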
[5] = blockers of HIV-1 ZM109 envelope-driven cell-cell fusion – HeLa effector, CEM target cells, luciferase, cherry-pick, dose response (AID 652058); assay type: functional, cell-based;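 also: luciferase signal from HIV-1 Env mediated cell-cell fusion of effector and target cells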
[6] = off-target signal loss in HeLa-CEM21 co-culture – HeLa F-luc CTL cells, cherry-picked, counter-screen for HIV-1 Env fusion inhibitor project, dose response (AID 652040); assay type: functional, cell-based;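 also: potency for signal decrease marking cytotoxic or nonspecific inhibition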
[7] = HIV-1 AD8 envelope cell-cell fusion blockers – cherry-pick, dose response (AID 652062); assay type: functional, cell-based;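 also: luciferase signal from cell-cell fusion driven by HIV-1 clade B AD8 Env; potency is for inhibitors of fusion seen as a drop in luminescence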
HeLa = assay: viability loss in HeLa cells – cell-based, ATP luminescence, cherry-pick samples, cytotoxicity control, dose response (AID 687004); assay type: functional; details: Homo sapiens
HepG2 = assay: HepG2 Cytotoxicity Assay Measured in Cell-Based System Using Plate Reader - 7071-02_Inhibitor_Dose_CherryPick_Activity.; assay type: functional; details: Homo sapiens
[8] = molecular target: T1, Heat shock factor protein 1 (Mus musculus, UniProt P38532); assay: enhancement of HSF1-driven luciferase signal – cell-based, NIH3T3, luminescence, dose retest, confirmation (AID 435004); assay type: functional;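 also: stress induced by proteasome inhibitor MG132 added 30 min after compound; luciferase reporter driven by HSF1 response element in NIH3T3 cells; actives raise luminescence as potentiators of the MG132 stress response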
T1 sequence (P38532 whole entry): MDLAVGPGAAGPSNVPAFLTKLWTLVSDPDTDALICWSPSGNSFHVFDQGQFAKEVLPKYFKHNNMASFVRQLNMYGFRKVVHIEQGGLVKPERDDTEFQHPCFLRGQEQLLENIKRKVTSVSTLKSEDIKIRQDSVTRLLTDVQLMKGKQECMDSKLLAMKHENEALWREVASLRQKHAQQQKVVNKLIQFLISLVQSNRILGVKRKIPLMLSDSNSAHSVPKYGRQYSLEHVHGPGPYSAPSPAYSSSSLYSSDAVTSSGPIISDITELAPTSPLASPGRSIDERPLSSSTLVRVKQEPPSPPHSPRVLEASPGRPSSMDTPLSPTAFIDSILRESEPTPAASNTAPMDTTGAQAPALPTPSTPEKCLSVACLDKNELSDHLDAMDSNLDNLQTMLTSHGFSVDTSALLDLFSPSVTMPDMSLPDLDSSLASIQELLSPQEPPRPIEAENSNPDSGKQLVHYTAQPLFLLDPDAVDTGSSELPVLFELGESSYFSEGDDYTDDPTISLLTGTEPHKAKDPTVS

[9] = molecular target: T2, Corticotropin-releasing factor receptor 2/Corticotropin-releasing factor-binding protein (Homo sapiens, UniProt P24387+Q13324); assay: activators of CRF receptor 2 with binding protein – uHTS hits, confirmation (AID 602473); assay type: functional; details: read-out: EC50_Mean
T2 sequence (Q13324 whole entry): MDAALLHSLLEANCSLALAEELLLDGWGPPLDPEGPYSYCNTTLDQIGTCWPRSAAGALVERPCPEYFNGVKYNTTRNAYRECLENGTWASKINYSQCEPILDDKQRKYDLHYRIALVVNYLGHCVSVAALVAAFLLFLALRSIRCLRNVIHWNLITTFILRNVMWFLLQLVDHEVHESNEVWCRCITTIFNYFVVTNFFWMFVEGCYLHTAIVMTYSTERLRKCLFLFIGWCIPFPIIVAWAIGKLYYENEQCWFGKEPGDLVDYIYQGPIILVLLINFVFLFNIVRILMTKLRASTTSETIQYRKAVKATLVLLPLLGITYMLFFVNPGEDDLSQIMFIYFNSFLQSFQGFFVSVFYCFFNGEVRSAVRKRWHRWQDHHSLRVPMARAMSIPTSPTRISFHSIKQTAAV
T2 sequence (P24387 whole entry): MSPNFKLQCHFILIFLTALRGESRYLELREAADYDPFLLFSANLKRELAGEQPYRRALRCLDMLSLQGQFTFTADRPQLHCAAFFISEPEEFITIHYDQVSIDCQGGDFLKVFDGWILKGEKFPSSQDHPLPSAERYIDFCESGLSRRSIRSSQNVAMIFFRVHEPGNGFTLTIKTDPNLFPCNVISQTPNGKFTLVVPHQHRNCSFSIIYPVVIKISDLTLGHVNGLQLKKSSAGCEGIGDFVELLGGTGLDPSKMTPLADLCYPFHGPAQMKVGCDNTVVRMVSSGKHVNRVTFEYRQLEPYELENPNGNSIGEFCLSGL

Beta-galactosidase = Beta-galactosidase (Escherichia coli, UniProt Q8VNN2); assay: Dose response counterscreen for EBI2 assay utilizing the enzyme, b-galactosidase.; assay type: functional
H9c2 = assay: cells; assay type: functional, cell-based; details: Rattus norvegicus, H9c2, Myocardium;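 also: confirmatory concentration-response retest of ultra-high-throughput screening hits for modulation of myocardial damage; cell death induced by hydrogen peroxide oxidative stress; compound pretreatment for 60 min then peroxide exposure for 2 h; potency is for protecting the cells against peroxide damage rather than for killing them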
Protein S100-A4 = Protein S100-A4 (Homo sapiens, UniProt P26447); assay: human S100A4 peptide interaction inhibition curves – biochemical, fluorescence polarization, cherry-picked hits, dose response (AID 687001); assay type: functional
Vero = assay: viability loss in Vero cells – cell-based, plate reader, cherry-pick samples, cytotoxicity control, dose response (AID 687020); assay type: functional; details: Chlorocebus sabaeus
BHK-21 = assay: viability loss in BHK-21 cells – cell-based, plate reader, cherry-pick samples, cytotoxicity control, dose response (AID 687030); assay type: functional; details: Mesocricetus auratus
A549 = assay: viability loss in A549 cells – cell-based, plate reader, cherry-pick samples, cytotoxicity control, dose response (AID 687028); assay type: functional; details: Homo sapiens

Fructose-bisphosphate aldolase, sequence (P9WQA3 whole entry): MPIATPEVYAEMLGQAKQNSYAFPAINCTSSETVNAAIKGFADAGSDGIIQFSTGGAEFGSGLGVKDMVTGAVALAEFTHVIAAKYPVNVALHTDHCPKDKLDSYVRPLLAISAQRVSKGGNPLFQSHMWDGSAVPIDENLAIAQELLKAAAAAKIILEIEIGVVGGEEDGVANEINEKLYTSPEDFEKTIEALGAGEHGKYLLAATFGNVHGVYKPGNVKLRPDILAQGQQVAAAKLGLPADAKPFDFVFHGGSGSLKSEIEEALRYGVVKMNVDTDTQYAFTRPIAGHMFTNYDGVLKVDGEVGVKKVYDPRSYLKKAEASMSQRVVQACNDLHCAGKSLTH
Beta-galactosidase, sequence (Q8VNN2 whole entry): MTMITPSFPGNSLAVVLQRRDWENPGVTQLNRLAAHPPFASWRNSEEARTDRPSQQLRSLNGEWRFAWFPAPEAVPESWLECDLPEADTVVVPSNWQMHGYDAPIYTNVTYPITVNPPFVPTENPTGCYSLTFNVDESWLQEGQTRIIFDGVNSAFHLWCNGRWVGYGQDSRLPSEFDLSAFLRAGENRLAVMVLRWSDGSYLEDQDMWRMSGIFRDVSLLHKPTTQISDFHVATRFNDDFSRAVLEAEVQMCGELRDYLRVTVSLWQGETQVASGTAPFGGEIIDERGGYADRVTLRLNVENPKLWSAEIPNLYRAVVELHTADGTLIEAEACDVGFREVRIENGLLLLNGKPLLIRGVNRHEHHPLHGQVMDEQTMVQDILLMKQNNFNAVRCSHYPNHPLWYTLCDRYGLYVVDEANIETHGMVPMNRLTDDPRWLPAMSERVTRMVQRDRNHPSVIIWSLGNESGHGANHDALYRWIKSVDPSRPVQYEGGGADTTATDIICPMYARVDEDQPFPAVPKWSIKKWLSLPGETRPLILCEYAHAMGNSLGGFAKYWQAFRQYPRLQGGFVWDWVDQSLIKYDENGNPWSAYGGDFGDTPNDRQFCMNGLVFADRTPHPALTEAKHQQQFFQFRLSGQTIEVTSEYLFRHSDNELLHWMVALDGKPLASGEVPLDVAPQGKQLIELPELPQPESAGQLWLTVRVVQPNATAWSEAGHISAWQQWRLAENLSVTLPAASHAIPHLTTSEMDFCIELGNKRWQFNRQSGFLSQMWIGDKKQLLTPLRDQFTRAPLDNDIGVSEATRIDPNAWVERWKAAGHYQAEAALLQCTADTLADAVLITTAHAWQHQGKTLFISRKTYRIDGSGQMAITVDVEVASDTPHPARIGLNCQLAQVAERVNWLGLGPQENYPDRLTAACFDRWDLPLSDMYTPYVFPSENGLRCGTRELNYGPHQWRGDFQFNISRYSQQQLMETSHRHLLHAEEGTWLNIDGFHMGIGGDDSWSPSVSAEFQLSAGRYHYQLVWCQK
Protein S100-A4, sequence (P26447 whole entry): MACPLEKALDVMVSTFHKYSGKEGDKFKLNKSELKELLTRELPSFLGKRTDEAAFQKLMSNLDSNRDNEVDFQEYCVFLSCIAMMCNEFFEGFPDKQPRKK

In the case of `N#Cc1c(-c2ccco2)cc(C2CC2)nc1N`, the IC50 [1] is reported as 1.43 µM (active).
With `O=C(NNc1nc2cc3c(cc2s1)OCO3)c1ccc(F)cc1` the IC50 [2] was > 122 µM (inactive).
For `Cc1ccc2nc(NC(=O)C3CCN(S(=O)(=O)c4cccs4)CC3)sc2c1`, the AC50 [3] was 46.5 µM (active), the AC50 [4] was 69.6 µM (active) and the AC50 [5] was 13.9 µM (active). For the same compound, the AC50 [6] was > 70 µM (inactive) and the AC50 [7] was 3.05 µM (active).
In the case of `CN(C[C@H]1N[C@@H](CO)[C@H]1c1ccc(-c2cccc(F)c2)cc1)S(C)(=O)=O`, the AC50 (HeLa) is reported as 20.3 µM (active) and the AC50 (HepG2) is reported as 23.7 µM (active).
For `CC1(C)CC(=O)C(=CNc2cc(C(=O)c3ccccc3)ccc2/N=C/C2=C(O)CC(C)(C)CC2=O)C(=O)C1`, the EC50 [8] was 56.1 µM (active), the EC50 [9] was > 53 µM (inactive) and the IC50 (Beta-galactosidase) was 7.97 µM (active).
With `O=C1C=C(N2CCOCC2)c2cccc3cccc1c23` the IC50 (H9c2) was 18.2 µM (active) and the AC50 (Protein S100-A4) was 4.83 µM (active).
With `COc1ccc(-c2cn(CC[C@@H]3CC[C@H](NC(=O)Nc4ccc(F)cc4)[C@H](CO)O3)nn2)cc1` the AC50 (Vero) was 24.2 µM (active), the AC50 (BHK-21) was 38.8 µM (active) and the AC50 (A549) was 21.3 µM (active).
